Where “and” joins values, the source holds several entries; their conditions need not be identical. Equal entries are not always repeated. Where two headings read alike, the source gives them in different places. Values belong to the compound of their own block, whether it stands above or below them.
Assays:
human TRPM4 = human TRPM4 (Homo sapiens, UniProt Q8TD43); assay: QPatch automated patch clamp on TRPM4-expressing HEK293 cells; assay type: cell-based; details: hsTRPM4-expressing HEK293 cells; for EC50: read-out: TRPM4 EC50 (potentiator activity)
Chain of human TRPM4 (Q8TD43 whole entry): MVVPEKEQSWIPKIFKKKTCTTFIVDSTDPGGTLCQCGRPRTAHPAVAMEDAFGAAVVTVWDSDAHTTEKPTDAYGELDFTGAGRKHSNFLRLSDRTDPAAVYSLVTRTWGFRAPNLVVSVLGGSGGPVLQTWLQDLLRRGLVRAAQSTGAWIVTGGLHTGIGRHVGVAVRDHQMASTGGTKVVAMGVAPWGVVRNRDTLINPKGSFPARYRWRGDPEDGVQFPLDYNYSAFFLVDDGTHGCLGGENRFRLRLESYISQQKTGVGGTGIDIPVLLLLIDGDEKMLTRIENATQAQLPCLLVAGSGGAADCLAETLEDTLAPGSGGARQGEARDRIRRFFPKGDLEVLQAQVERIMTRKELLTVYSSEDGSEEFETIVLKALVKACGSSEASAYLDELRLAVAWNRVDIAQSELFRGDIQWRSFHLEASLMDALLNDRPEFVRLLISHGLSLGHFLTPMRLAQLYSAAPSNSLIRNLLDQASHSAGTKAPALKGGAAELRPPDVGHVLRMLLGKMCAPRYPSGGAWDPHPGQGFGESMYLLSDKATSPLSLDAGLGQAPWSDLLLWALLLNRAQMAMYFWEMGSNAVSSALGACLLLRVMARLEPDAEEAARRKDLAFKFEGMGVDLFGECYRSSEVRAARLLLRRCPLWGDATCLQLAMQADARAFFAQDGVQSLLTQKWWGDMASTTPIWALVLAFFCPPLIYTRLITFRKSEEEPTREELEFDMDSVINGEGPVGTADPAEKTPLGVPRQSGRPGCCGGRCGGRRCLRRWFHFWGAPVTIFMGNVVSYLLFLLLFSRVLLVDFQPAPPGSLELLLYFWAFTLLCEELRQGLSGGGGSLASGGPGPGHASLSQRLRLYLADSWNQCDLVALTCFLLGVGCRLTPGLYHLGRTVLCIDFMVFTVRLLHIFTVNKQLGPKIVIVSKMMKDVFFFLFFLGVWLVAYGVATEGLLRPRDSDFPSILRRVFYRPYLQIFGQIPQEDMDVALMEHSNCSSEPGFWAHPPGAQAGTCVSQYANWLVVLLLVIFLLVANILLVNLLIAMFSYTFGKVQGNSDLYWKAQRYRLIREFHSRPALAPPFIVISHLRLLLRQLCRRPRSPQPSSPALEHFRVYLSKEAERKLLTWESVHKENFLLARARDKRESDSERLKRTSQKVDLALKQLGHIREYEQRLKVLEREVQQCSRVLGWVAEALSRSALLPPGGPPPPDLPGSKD
Method: QPatchHTX, an automated electrophysiology platform, was used in single hole mode. One day before use human TRPM4- or TRPM5-expressing HEK293 cells were seeded in a T75 flask at a density of 53k cells per cm^2 and at passages < 23. […] The extracellular solution was (in mM): CaCl2 (7), MgCl2 (2), KCl (5), HEPES (10), NaCl (70), NMDG (70); pH 7.4 with NaOH. The intracellular solution was (in mM): HEPES (10), NMDG (100), NaCl (50), EGTA (20), MgCl2 (1), CaCl2 (21); pH 7.2 with HCl. […] This protocol was repeated every 7 seconds. […] FFA was used as reference compound and applied cumulatively with each concentration incubating at a minimum of 20 voltage protocol runs (140 seconds) with the current after addition of FFA being calculated as full block. […] Each compound was measured at least 3 time independently.

human TRPM5 = target: T1, human TRPM5 (Homo sapiens, UniProt Q9NZQ8); assay: QPatch automated patch clamp on TRPM5-expressing HEK293 cells; assay type: cell-based; details: hsTRPM5-expressing HEK293 cells
T1 sequence (Q9NZQ8 1-1165): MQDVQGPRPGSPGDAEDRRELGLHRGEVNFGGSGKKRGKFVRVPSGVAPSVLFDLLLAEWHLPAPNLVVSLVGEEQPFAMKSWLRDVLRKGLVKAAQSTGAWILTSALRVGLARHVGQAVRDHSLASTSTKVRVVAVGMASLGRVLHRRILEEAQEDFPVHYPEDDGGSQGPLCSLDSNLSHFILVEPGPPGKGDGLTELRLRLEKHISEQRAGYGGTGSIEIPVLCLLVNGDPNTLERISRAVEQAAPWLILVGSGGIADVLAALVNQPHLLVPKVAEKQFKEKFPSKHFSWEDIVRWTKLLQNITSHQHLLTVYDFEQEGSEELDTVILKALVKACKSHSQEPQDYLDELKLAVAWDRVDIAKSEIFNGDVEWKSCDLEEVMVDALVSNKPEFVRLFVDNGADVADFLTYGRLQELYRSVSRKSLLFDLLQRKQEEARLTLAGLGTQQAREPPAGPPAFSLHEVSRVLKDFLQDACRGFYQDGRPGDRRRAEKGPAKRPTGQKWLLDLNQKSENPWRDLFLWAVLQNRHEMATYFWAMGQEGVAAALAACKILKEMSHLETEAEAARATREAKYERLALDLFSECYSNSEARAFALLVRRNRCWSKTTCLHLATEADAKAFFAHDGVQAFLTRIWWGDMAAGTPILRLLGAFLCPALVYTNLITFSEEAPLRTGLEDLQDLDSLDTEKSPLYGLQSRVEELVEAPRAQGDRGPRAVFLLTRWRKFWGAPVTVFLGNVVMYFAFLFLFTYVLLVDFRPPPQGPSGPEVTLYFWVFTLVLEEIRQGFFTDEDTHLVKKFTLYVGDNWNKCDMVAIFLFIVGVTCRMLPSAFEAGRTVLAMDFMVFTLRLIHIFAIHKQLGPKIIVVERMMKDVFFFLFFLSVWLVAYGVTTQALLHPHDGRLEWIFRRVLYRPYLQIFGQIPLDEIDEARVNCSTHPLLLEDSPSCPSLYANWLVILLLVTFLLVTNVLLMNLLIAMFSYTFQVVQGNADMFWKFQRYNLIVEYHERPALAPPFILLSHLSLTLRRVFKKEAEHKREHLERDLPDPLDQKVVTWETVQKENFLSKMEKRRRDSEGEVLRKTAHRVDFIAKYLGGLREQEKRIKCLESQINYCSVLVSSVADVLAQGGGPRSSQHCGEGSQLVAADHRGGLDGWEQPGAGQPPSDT
Description: The counter screening phase involved the inclusion of hsTRPM5-expressing HEK293 cells, as closest homologue, and the parental HEK293 cell line to evaluate selectivity. […] Based on categorization of biological activity, mass spectrometry quality control, and aspects of medicinal chemistry, we prioritized 144 selective hsTRPM4 compounds. These compounds were then subjected to automated patch clamp electrophysiology measurements (QPatch[58]) to evaluate their activity profiles and IC50 values (Figures 1A, S1, and S2).
QPatchHTX, an automated electrophysiology platform, was used in single hole mode. One day before use human TRPM4- or TRPM5-expressing HEK293 cells were seeded in a T75 flask at a density of 53k cells per cm^2 and at passages < 23. For QPatch assays, cells were harvested and re-suspended in SFM (Gibco, 11686029). The extracellular solution was (in mM): CaCl2 (7), MgCl2 (2), KCl (5), HEPES (10), NaCl (70), NMDG (70); pH 7.4 with NaOH. The intracellular solution was (in mM): HEPES (10), NMDG (100), NaCl (50), EGTA (20), MgCl2 (1), CaCl2 (21); pH 7.2 with HCl. After break-in, channels were consistently open and current through the channels could be observed at a voltage ramp from –100 mV to +100 mV over 500 ms. This protocol was repeated every 7 seconds. After saline and vehicle application, the channel was desensitized and residual current was used as baseline. FFA was used as reference compound and applied cumulatively with each concentration incubating at a minimum of 20 voltage protocol runs (140 seconds) with the current after addition of FFA being calculated as full block. […] Each compound was measured at least 3 time independently.

[1] = In vivo pharmacokinetics after single i.p. or i.v. dose; details: female, C57BL/6J, mouse
Method: Next, to assess in vivo availability of the Series 1–3 compounds, we evaluated drug metabolism and pharmacokinetics (DMPK). We measured compound concentrations in plasma, heart, and brain at several time points after intraperitoneal (i.p.) or intravenous (i.v.) single-dose injections.
Half-life and bioavailability were calculated by noncompartmental analysis using the R package PK[84] (v1.3-6).

CYP2D6 = target: T2, CYP2D6 (Homo sapiens, UniProt P10635); assay: CYP inhibition assay 2D6; assay type: in vitro ADME
T2 construct: purchased BD Gentest
T2 sequence (P10635 whole entry): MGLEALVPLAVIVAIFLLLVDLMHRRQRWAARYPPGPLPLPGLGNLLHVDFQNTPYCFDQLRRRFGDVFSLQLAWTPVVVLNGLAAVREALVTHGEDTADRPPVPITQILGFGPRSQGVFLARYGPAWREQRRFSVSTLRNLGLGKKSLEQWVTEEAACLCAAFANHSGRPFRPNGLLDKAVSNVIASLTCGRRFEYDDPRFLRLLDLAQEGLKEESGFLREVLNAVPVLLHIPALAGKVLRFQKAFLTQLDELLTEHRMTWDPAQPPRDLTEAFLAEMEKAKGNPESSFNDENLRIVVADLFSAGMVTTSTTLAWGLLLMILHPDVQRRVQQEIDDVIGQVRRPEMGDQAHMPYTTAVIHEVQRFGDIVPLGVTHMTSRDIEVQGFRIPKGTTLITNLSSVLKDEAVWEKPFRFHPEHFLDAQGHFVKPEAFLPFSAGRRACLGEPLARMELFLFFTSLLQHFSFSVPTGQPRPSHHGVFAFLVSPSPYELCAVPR
Method: (§1) The half-maximal inhibitory concentration (IC50) for cytochrome P450 (CYP) enzymes was determined using an in vitro enzyme inhibition assay. Recombinant CYP enzymes or human liver microsomes from BD Gentest, in 0.1 M phosphate buffer pH 7.4, containing native CYP enzymes were incubated with the test compound at various concentrations (1, 3, 10 and 30 μM) and containing 0.5% DMSO and 0.1% BSA final concentrations. 1 mM of NADPH cofactor was added and the reaction was started by a rapid increase of temperature until 37°C.

[2] = Microsome clearance (mouse); assay type: in vitro ADME; details: mouse liver microsomes, 45 min, NADPH
Method: (§2) Human or mouse liver microsomes were incubated with the test compound at a concentration of 1 μM for 45 min in the presence of cofactor (NADPH in excess). Samples were collected at various time points, and % remaining of test compound was determined using mass spectrometry (LC-MS/MS) to calculate hepatic clearance rate (L/h/kg).

CYP3A4 = target: T3, CYP3A4 (Homo sapiens, UniProt P08684); assay: CYP inhibition assay 3A4; assay type: in vitro ADME
T3 construct: purchased BD Gentest
T3 sequence (P08684 whole entry): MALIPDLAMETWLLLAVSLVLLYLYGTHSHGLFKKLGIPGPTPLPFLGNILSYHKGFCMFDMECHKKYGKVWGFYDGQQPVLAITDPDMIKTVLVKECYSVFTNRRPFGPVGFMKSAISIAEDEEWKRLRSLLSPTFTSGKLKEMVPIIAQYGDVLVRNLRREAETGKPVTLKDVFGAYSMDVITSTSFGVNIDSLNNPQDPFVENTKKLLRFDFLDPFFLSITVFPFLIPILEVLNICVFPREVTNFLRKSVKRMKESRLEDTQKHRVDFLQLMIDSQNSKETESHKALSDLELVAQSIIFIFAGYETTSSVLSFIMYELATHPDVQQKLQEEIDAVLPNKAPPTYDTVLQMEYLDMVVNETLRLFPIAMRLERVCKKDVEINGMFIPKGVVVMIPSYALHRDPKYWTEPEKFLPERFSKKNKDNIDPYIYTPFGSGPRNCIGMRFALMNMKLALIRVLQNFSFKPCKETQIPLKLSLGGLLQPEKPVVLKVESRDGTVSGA
Method: as §1

[3] = target: potassium channel human Ether-a-go-go Related Gene (hERG) (Homo sapiens, UniProt Q12809); assay: hERG channel inhibition; assay type: cell-based
Chain of potassium channel human Ether-a-go-go Related Gene (hERG) (Q12809 whole entry): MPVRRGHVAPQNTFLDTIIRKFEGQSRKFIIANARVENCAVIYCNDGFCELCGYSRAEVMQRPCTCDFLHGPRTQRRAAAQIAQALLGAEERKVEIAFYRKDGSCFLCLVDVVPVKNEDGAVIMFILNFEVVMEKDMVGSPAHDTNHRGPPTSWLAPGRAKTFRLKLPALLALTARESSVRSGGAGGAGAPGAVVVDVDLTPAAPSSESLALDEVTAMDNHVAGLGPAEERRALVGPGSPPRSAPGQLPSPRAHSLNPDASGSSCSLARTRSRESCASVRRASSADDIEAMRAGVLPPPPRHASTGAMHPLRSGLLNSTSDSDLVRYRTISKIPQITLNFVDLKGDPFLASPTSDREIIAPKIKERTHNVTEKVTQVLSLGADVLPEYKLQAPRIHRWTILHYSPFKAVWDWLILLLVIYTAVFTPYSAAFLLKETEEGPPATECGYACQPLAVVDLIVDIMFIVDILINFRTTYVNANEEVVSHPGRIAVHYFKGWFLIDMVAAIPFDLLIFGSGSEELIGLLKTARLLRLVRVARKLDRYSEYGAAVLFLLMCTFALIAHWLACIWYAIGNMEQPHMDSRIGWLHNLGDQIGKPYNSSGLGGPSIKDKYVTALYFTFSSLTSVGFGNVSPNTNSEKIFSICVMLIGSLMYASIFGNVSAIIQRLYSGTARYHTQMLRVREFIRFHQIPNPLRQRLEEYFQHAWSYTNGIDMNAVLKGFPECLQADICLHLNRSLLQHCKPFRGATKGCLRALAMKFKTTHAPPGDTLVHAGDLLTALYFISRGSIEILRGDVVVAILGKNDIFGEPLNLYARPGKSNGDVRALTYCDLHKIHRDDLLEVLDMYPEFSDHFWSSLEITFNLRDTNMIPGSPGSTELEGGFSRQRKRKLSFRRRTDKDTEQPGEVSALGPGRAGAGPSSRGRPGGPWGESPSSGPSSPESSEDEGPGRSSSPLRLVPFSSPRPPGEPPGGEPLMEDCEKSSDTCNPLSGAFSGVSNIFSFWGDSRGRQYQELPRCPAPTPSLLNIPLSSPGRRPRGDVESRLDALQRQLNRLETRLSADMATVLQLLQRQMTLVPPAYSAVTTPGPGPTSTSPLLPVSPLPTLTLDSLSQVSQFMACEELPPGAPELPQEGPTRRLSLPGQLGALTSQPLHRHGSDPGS
Description: We next used in vitro assays to test absorption, distribution, metabolism, excretion and toxicity (ADMET) parameters for selected compounds. We assessed compound absorption using parallel artificial membrane permeability (PAMPA) and Caco-2 cell permeability assays (cut-off criterion >2 × 10^−6 cm s^−1). […] To assess potential off-target activity of our compounds that could be relevant for safety in humans, we conducted comprehensive in vitro pharmacology using the commercially available and widely used SafetyScreen44 interaction panel[60] covering eight protein families.

[4] = Microsome clearance (human); assay type: in vitro ADME; details: human liver microsomes, 45 min, NADPH, read-out: Microsomes (h) clearance (converted)
Method: as §2

[5] = Caco-2 permeability assay; assay type: in vitro ADME; details: human, heading: Caco-2 perm., direction not given
Method: Caco-2 permeability was evaluated using a cell-based assay with Caco-2 cells cultured on permeable membrane inserts. The test compound was added at 10 μM to the apical (donor) compartment, and samples were collected from the basolateral (receiver) compartment at 120 min. The test compound was also added at 10 μM to the basolateral (donor) compartment, and samples were collected from the apical (receiver) compartment at 120 min. The amount of the compound in both compartments was measured using mass spectrometry (LC-MS/MS). The permeability coefficient (Papp, nm/s) apical to basolateral and basolateral to apical, and an efflux ratio were calculated.

CYP 2C19 = target: T4, CYP 2C19 (Homo sapiens, UniProt P33261); assay: CYP inhibition assay 2C19; assay type: in vitro ADME
T4 construct: purchased BD Gentest
T4 sequence (P33261 whole entry): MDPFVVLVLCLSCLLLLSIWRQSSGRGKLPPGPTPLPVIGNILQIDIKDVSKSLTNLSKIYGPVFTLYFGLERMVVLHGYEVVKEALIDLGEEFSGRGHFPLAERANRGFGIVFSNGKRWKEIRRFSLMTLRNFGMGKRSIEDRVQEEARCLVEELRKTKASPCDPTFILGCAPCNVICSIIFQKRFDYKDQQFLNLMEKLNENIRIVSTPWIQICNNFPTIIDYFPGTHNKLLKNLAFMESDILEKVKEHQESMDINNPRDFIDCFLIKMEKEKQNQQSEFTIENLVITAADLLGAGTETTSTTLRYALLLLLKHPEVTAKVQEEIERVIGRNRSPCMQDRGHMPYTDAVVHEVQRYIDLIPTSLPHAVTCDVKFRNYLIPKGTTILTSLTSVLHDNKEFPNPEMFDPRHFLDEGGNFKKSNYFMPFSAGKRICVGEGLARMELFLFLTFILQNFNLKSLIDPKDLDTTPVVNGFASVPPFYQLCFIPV
Method: as §1

[6] = Parallel Artificial Membrane Permeability Assay (PAMPA); assay type: in vitro ADME; details: pH not given; for Papp at 16 h, 200 μM: PAMPA, read-out: PAMPA perm.
Method: Parallel Artificial Membrane Permeability Assay (PAMPA) was performed using artificial lipid membrane layers to assess passive permeability of the test compound. Test compounds were diluted to 200 μM in system buffer at pH 5.0, 6.2 and 7.4. The solutions were filtered and 150 μL transferred to a High Sensitivity 96 well UV plate. This was analysed by UV as the reference plate. A 200 μL sample of the 200 μM solution was transferred to the ‘donor’ plate of the PAMPA pIon sandwich plate system. 200 μL of acceptor sink buffer was transferred to the ‘acceptor’ plate which had been previously treated with GIT-O lipid solution across the well filter. Donor and acceptor plates were sandwiched and kept in a humid environment at room temperature for 16 hours. On completion of the incubation the donor and acceptor plates were separated. 150 μL of solution was transferred from each of the donor and acceptor PAMPA sandwich plates into High Sensitivity 96 well UV plates for analysis by UV. at different time points. The concentration of the compound in the acceptor compartment was determined using mass spectrometry. The permeability coefficient (Papp) was calculated based on the rate of appearance of the compound in the acceptor compartment (nm/s).

[7] = brain, ip, read-out: Brain half-life (converted)
[8] = brain, iv, read-out: Brain half-life (converted)
[9] = heart, ip, read-out: Heart half-life (converted)
[10] = heart, iv, read-out: Heart half-life (converted)
[11] = plasma, ip, read-out: Plasma half-life (converted)
[12] = plasma, iv, read-out: Plasma half-life (converted)

Compound: c1ccc(-c2ccccc2NCc2nc3ccccc3o2)cc1 [CMP009]
IC50 (human TRPM4): 550 nM

Compound: O=c1cc(NC2CCCCCC2)nc2ccc(Cl)cn12 [CMP111]
IC50 (human TRPM4): 170 nM and 110 nM

Compound: O=C(O)c1cc(Br)ccc1NS(=O)(=O)c1ccc(Cl)cc1 [CMP116]
IC50 (human TRPM4): 1870 nM
IC50 (human TRPM5): > 30 µM

Compound: c1ccc(CSCc2cn3ccsc3n2)cc1 [CMP133]
IC50 (human TRPM4): 280 nM

Compound: Cc1noc(-c2csc(S(=O)(=O)Nc3ccccc3C(F)(F)F)c2)c1C [CMP157]
IC50 (human TRPM4): 360 nM
half-life [1, 7]: 234 min
half-life [1, 8]: 252 min
half-life [1, 9]: 198 min
half-life [1, 10]: 210 min
half-life [1, 11]: 174 min
half-life [1, 12]: 168 min

Compound: Nc1nnc(Cc2cccc(Br)c2)s1 [CMP225]
EC50 (human TRPM4): 1340 nM

Compound: Oc1ccccc1NCc1nc2ccccc2o1 [CMP311]
EC50 (human TRPM4): 3240 nM

Compound: COc1ccccc1-c1ccccc1NCc1nc2ccccc2o1 [CMP320]
IC50 (human TRPM4): 820 nM

Compound: O=C(CCc1ccccc1)Nc1ccc(C(F)(F)F)cc1C(=O)O [CMP502]
IC50 (human TRPM4): 600 nM
IC50 (human TRPM5): > 30 µM

Compound: O=C(CCc1ccccc1Cl)Nc1ccc(Br)cc1C(=O)O [CMP510]
IC50 (human TRPM4): 720 nM
IC50 (human TRPM5): 19 µM

Compound: O=C(CCc1cccc(Cl)c1)Nc1ccc(Br)cc1C(=O)O [CMP512]
IC50 (human TRPM4): 410 nM
IC50 (human TRPM5): 0.94 µM

The next lines start with results.

IC50 (CYP2D6): > 50 µM
CLint scaled at 1 μM [2]: > 900 mL/min/kg
IC50 (human TRPM5): > 10 µM
IC50 (CYP3A4; TDI, read-out: Cyp IC50 TDI 3A4): > 50 µM
IC50 (CYP3A4; read-out: Cyp IC50 3A4): > 50 µM
half-life [1, 7]: 156 min
half-life [1, 8]: 96 min
half-life [1, 9]: 258 min
half-life [1, 10]: 288 min
half-life [1, 11]: 270 min
half-life [1, 12]: 90 min
CLint scaled at 1 μM [4]: 460 mL/min/kg
Compound: Cc1ccc(-c2ccccc2NCc2nc3ccccc3o2)s1 [CMP354]
IC50 [3]: > 10 µM

IC50 (CYP2D6): > 50 µM
Papp at 120 min, 10 μM [5]: 233 nm/s
CLint scaled at 1 μM [2]: 900 mL/min/kg
IC50 (CYP 2C19): 4 µM
IC50 (human TRPM5): > 30 µM
Papp at 16 h, 200 μM [6]: 25 ×10⁻⁶ cm/s
CLint scaled at 1 μM [4]: 302 mL/min/kg
Compound: CNc1cccc(-c2ccccc2NCc2nc3ccccc3o2)c1 [CMP462]

IC50 (CYP2D6): > 50 µM
Papp at 120 min, 10 μM [5]: 189 nm/s
CLint scaled at 1 μM [2]: 393 mL/min/kg
IC50 (human TRPM5): > 30 µM
Papp at 16 h, 200 μM [6]: 37.9 ×10⁻⁶ cm/s
CLint scaled at 1 μM [4]: 216 mL/min/kg
Compound: Nc1cccc(-c2ccccc2NCc2nc3ccccc3o2)c1 [CMP465]

IC50 (CYP2D6): > 50 µM
CLint scaled at 1 μM [2]: 900 mL/min/kg
IC50 (human TRPM5): > 30 µM
Papp at 16 h, 200 μM [6]: 22 ×10⁻⁶ cm/s
CLint scaled at 1 μM [4]: 225 mL/min/kg
Compound: CNc1ccc(-c2ccccc2NCc2nc3ccccc3o2)cc1 [CMP470]

IC50 (CYP2D6; human, pH 7.4): > 50 µM
IC50 (human TRPM5): > 30 µM
IC50 (CYP3A4; human, pH 7.4): > 50 µM
PAMPA perm. [6]: no detection
Compound: CCCNc1cccc(-c2ccccc2NCc2nc3ccccc3o2)c1 [CMP471]

IC50 (human TRPM5): > 30 µM
Compound: O=C(CCc1ccccc1)Nc1ccc(Cl)cc1C(=O)O [CMP493]
IC50 (human TRPM4): 530 nM
